In ChEMBL document CHEMBL1157563 (J Med Chem, 2010):

What was measured:
[1] = molecular target: Histone deacetylase; format: cell-based, Homo sapiens; settings: hela
Description: Inhibition of HDAC in human HeLa cell nuclear extract

[2] = molecular target: Epidermal growth factor receptor (Homo sapiens, UniProt P00533)
[3] = molecular target: Receptor tyrosine-protein kinase erbB-2 (Homo sapiens, UniProt P04626)
[4] = tested on: HepG2; assay: Antitumor activity against human HepG2 cells xenografted in nude CD1 mouse at 25 mg/kg, po daily relative to control; format: functional
[5] = cells; format: functional, cell-based; settings: Homo sapiens, HCC827
Description: Antiproliferative activity against human HCC827 cells after hrs by ATP content assay

[6] = tested on: NCI-H358; assay: cells; format: functional, cell-based; settings: Homo sapiens
Description: Antiproliferative activity against human NCI-H358 cells after hrs by ATP content assay

[7] = tested on: NCI-H460; assay: cells; format: functional, cell-based; settings: Homo sapiens
Description: Antiproliferative activity against human H460 cells after hrs by ATP content assay

[8] = tested on: HepG2; assay: Antiproliferative activity against human HepG2 cells after hrs by ATP content assay; format: functional, cell-based
[9] = cells; format: functional, cell-based, Hep 3B2; settings: Homo sapiens, Hep3B
Description: Antiproliferative activity against human Hep3B2 cells after hrs by ATP content assay

[10] = tested on: SK-HEP1; assay: cells; format: functional, cell-based; settings: Homo sapiens
Description: Antiproliferative activity against human SKHEP1 cells after hrs by ATP content assay

[11] = tested on: CAPAN-1; assay: cells; format: functional, cell-based; settings: Homo sapiens
Description: Antiproliferative activity against human Capan1 cells after hrs by ATP content assay

[12] = tested on: BXPC-3; assay: cells; format: functional, cell-based; settings: Homo sapiens
Description: Antiproliferative activity against human BxPC3 cells after hrs by ATP content assay

[13] = tested on: MCF7; assay: cells; format: functional, cell-based; settings: Homo sapiens
Description: Antiproliferative activity against human MCF7 cells after hrs by ATP content assay

[14] = tested on: MDA-MB-231; assay: Antiproliferative activity against human MDA-MB-231 cells after hrs by ATP content assay; format: functional, cell-based
[15] = tested on: SK-BR-3; assay: cells; format: functional, cell-based; settings: Homo sapiens
Description: Antiproliferative activity against human SK-BR-3 cells after hrs by ATP content assay

Epidermal growth factor receptor, sequence (P00533 whole entry): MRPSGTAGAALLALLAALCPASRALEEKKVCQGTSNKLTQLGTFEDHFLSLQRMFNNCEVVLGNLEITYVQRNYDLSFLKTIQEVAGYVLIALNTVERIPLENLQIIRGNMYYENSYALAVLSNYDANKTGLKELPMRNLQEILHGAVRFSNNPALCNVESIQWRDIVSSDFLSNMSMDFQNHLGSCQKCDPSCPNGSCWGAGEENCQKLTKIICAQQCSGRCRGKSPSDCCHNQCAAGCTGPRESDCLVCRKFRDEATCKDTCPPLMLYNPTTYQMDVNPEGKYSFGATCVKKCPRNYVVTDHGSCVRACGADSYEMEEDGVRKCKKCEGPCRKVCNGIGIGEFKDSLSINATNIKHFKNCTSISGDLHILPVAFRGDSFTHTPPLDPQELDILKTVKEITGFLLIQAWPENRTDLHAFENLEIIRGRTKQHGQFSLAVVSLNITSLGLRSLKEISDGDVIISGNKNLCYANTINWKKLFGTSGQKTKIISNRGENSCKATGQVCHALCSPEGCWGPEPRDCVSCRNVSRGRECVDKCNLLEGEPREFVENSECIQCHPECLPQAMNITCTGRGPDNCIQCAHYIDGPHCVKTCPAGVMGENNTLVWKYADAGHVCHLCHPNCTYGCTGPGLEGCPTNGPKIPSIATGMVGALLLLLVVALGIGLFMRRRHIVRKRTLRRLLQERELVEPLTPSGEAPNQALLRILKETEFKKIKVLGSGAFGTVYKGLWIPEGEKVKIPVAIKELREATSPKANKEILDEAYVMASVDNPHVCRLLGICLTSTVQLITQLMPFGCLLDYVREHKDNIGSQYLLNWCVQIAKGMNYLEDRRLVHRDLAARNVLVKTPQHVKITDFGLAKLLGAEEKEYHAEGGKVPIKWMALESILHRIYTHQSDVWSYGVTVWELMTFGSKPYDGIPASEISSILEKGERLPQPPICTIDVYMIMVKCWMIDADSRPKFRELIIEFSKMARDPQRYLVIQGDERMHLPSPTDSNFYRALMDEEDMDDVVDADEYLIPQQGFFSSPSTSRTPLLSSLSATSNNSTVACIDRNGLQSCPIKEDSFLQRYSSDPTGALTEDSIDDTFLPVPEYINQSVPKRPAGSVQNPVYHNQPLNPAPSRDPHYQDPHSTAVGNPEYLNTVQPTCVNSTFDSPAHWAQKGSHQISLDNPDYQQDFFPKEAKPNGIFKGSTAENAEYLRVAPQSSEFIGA
Receptor tyrosine-protein kinase erbB-2, sequence (P04626 whole entry): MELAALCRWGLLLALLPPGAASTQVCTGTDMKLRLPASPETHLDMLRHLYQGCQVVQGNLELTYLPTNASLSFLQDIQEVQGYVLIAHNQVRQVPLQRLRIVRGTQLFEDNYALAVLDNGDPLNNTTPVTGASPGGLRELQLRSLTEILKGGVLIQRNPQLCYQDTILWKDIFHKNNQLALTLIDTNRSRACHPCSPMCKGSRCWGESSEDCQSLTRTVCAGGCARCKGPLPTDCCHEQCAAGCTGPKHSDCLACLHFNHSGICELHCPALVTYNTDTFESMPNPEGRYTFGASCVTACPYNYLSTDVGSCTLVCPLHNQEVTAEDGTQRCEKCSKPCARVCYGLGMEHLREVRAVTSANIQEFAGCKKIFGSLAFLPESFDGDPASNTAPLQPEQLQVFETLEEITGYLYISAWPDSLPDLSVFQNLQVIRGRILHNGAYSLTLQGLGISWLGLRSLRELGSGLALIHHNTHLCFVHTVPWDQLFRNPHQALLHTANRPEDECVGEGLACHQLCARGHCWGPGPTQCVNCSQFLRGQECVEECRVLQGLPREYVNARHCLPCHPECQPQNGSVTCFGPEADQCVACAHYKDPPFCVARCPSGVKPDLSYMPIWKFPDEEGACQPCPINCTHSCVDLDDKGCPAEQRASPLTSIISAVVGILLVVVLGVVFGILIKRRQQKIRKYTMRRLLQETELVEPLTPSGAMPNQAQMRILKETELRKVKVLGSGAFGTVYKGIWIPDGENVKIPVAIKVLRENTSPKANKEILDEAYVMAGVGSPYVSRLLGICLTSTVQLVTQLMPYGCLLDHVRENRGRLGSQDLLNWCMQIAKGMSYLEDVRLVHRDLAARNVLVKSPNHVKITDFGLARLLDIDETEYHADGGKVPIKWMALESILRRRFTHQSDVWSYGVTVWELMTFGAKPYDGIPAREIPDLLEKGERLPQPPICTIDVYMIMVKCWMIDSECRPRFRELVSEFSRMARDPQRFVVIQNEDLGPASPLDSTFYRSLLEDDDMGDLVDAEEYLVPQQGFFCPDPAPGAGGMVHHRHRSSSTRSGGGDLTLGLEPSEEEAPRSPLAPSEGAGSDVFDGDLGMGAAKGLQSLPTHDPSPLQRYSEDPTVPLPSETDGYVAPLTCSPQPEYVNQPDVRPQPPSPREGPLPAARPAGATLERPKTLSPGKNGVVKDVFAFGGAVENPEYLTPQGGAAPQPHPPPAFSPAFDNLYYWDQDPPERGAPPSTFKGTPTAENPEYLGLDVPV

COc1cc2ncnc(Nc3ccc(F)c(Cl)c3)c2cc1SCCCCCCC(=O)NO
IC50 [1]: 39.6 nM | IC50 [2]: 1.99 nM | IC50 [3]: 24.2 nM

C#Cc1cccc(Nc2ncnc3cc(OCCOC)c(OCCOC)cc23)c1 [ERLOTINIB]
Activity [4]: 50.8%

COc1cc2ncnc(Nc3ccc(F)c(Cl)c3)c2cc1OCCCCCCC(=O)NO
IC50 [1]: 6.5 nM | IC50 [5]: 930 nM | IC50 [6]: 710 nM | IC50 [7]: 900 nM | IC50 [8]: 290 nM | IC50 [9]: 600 nM | IC50 [10]: 330 nM | IC50 [11]: 1730 nM | IC50 [12]: 380 nM | IC50 [13]: 1100 nM | IC50 [14]: 370 nM | IC50 [15]: 170 nM | IC50 [3]: 19 nM

C#Cc1cccc(Nc2ncnc3cc(OC)c(OCCCCC(=O)NO)cc23)c1
IC50 [1]: 421 nM | IC50 [3]: 38.4 nM

COc1cc2ncnc(NCc3ccc(Cl)c(F)c3)c2cc1OCCCCCCC(=O)NO
IC50 [1]: 11.3 nM | IC50 [2]: 72 nM | IC50 [3]: 478 nM

COc1cc2ncnc(N[C@@H](C)c3ccccc3)c2cc1OCCCCCCC(=O)NO
IC50 [1]: 25.7 nM | IC50 [3]: > 2000 nM

COc1cc2ncnc(Nc3ccc(F)c(Cl)c3)c2cc1OCCC(=O)NO
IC50 [1]: 40900 nM | IC50 [2]: 7.1 nM | IC50 [3]: 10.6 nM

COc1cc2ncnc(NC(C)c3ccc(F)cc3)c2cc1OCCCCCCC(=O)NO (single isomer, unassigned)
IC50 [1]: 165.3 nM | IC50 [2]: 126 nM | IC50 [3]: 175 nM

COc1cc2ncnc(NCc3ccccc3)c2cc1OCCCCCCC(=O)NO
IC50 [1]: 4.2 nM | IC50 [2]: 99.4 nM | IC50 [3]: 225 nM

C#Cc1cccc(Nc2ncnc3cc(OCCCCCCC(=O)NO)c(OC)cc23)c1
IC50 [1]: 34.1 nM | IC50 [2]: 8.2 nM | IC50 [3]: 51.6 nM

COc1cc2c(Nc3ccc(F)c(Cl)c3)ncnc2cc1OCCCCCCC(=O)NO
IC50 [1]: 66.6 nM | IC50 [2]: 7 nM | IC50 [3]: 71.2 nM

COc1cc2ncnc(Nc3ccc(F)c(Cl)c3)c2cc1OCCCCC(=O)NO
IC50 [1]: 551 nM | IC50 [2]: 9.4 nM | IC50 [3]: 15 nM

COc1cc2ncnc(Nc3ccc(OCc4cccc(F)c4)c(Cl)c3)c2cc1OCCCCCCC(=O)NO
IC50 [1]: 58.1 nM | IC50 [2]: 9.08 nM | IC50 [3]: 10.1 nM

COc1cc2ncnc(Nc3ccc(F)c(Cl)c3)c2cc1OCCCC(=O)NO
IC50 [1]: > 100000 nM | IC50 [2]: 7.8 nM | IC50 [3]: 12.4 nM
